Where two headings read alike, the source gives them in different places.
Tests used:
human CB2R = target: T1, human CB2R (Homo sapiens, UniProt P34972); experiment: Competition radioligand binding assay, [3H]-CP55940, human CB2R
T1 construct: expressed in transfected cells
Description: CB2R competition binding experiments were carried out by employing cell membranes obtained from a stable HEK-hCB2 cell line. Cell membranes were prepared by washing the cells twice in PBS and scraped from the plate in PBS. Cell suspension was centrifuged at 1500× g for 3 min at 4 °C. Cell pellet was suspended in lysis buffer (15 mM Tris-HCl, 2 mM MgCl2, 0.3 mM EDTA, 1 mM EGTA, pH = 7.5), homogenized, and centrifuged at 40,000× g for 25 min at 4 °C. Pellet was suspended in lysis buffer and centrifuged at 40,000× g for 1 h at 4 °C. The membrane’s pellet was suspended in storage buffer (7.5 mM Tris-HCl, 12.5 mM MgCl2, 0.3 mM EDTA, 1 mM EGTA, 250 mM sucrose, pH = 7.5). The protein concentration of the cell membrane suspension was 4781 µg/mL.
Radioligand binding assays were performed in a polypropylene 96-well plate containing 30 μg of membranes, […] (101 Ci/mmol, 1 mCi/mL, Perkin Elmer NET1051250UC), and the compounds under study. Non-specific binding was determined in the presence of GW405833 10 μM (Sigma G1421). The reaction mixture (Vt: 250 μL/well) was incubated at 30 °C for 90 min, 200 μL was transferred to GF/C 96-well plate (Millipore, Madrid, Spain), pre-treated with 0.5% of PEI, and treated with binding buffer (50mM Tris-HCl, 5mM MgCl2, 2.5 mM EGTA, 0.1% BSA. pH: 7.4); afterward, it was filtered and washed four times with 250 μL wash buffer (50mM Tris-HCl, 5mM MgCl2, 2.5 mM EGTA, 1% BSA. pH: 7.4), before its measurement in a microplate beta scintillation counter (Microbeta Trilux, PerkinElmer, Madrid, Spain).

human CB1R = target: T2, human CB1R (Homo sapiens, UniProt P21554); experiment: Competition radioligand binding assay, [3H]-CP55940, human CB1R
T2 construct: expressed in transfected cells
Description: CB1R competition binding experiments were carried out by employing cell membranes obtained from a stable CHO-hCB1 cell line. Cell membranes were prepared by washing the cells twice with phosphate buffered saline (PBS) and scraped from the plate in lysis buffer (5 mM Tris-HCl, 2 mM EDTA, pH = 7.4). Cell suspension was homogenized and centrifuged at 1000× g for 10 min at 4 °C. Supernatant was isolated and centrifuged at 48,000× g for 1 h at 4 °C. The membrane’s pellet was suspended in a storage buffer (50 mM Tris-HCl, pH = 7.4). The protein concentration of the cell membrane suspension was 4292 µg/mL.
Radioligand binding assays were performed in a polypropylene 96-well plate containing 20 μg of cell membranes, 1.25 nM [^3H]-CP55940 (101 Ci/mmol, 1 mCi/mL, Perkin Elmer NET1051250UC), and the compounds under study. Non-specific binding was determined in the presence of Surinabant 10 μM. The reaction mixture (Vt: 250 μL/well) was incubated at 30 °C for 60 min, 200 μL was transferred to a GF/B 96-well plate (Millipore, Madrid, Spain) and treated with binding buffer (50 mM Tris-HCl, 5 mM MgCl2, 1 mM EDTA, 0.5% BSA. pH: 7.4); afterward, it was filtered and washed four times with 250 μL wash buffer (50 mM Tris-HCl, 5 mM MgCl2, 1 mM EDTA, 0.5% BSA. pH: 7.4), before its measurement in a microplate beta scintillation counter (Microbeta Trilux, PerkinElmer, Madrid, Spain).

SNAP-CB2R = target: T3, SNAP-CB2R (Homo sapiens, UniProt P34972); experiment: Tag-lite competition binding assay with CELT-335, living cells expressing SNAP-CB2R
T3 construct: host or cells: HEK-293 cells, transient transfection (lipofectamine 2000), living adherent cells

SNAP-CB1R = target: T4, SNAP-CB1R (Homo sapiens, UniProt P21554); experiment: cell-based; assay type: binding
T4 construct: expressed in transfected cells; host or cells: HEK-293T cells, transient transfection (PEI), living cells

hCB2R = details: literature value ref 32; cited from earlier work
CB1 receptor = details: literature value ref 31; cited from earlier work
[1] = 100 nM CELT-335, test compound 0-10 μM, mean ± SEM, read-out: pKi CB1 Tag-Lite Binding (CELT-335) (converted)

T1 sequence (P34972 whole entry): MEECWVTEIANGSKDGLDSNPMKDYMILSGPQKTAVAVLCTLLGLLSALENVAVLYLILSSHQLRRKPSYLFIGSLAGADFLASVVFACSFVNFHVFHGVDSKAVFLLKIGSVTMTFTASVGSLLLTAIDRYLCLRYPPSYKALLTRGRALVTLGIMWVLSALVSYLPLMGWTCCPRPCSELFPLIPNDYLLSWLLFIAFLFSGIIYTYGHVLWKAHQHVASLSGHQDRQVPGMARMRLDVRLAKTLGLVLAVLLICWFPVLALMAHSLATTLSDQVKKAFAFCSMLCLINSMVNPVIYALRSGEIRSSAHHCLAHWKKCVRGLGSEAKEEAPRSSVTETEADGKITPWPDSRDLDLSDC
T3 sequence (P34972 whole entry): as above
T4 sequence (P21554 whole entry): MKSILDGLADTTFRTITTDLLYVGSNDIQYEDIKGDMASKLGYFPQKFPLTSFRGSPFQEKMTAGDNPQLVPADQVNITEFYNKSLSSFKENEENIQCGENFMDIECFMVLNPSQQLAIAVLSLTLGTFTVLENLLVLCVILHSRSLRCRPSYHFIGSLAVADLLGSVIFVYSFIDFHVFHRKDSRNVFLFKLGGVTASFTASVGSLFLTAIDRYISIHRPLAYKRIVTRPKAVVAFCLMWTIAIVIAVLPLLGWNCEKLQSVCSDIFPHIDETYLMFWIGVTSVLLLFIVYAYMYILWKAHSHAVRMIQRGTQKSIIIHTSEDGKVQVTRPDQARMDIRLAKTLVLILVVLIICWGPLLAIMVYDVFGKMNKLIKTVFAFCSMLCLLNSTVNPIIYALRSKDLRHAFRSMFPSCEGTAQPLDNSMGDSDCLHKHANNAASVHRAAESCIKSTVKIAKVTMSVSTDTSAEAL
T2 sequence (P21554 whole entry): as above

| SMILES | Ki (human CB2R) [nM] | Ki (human CB1R) [nM] | Ki (SNAP-CB2R) [nM] | Ki (SNAP-CB1R; [1]) [nM] | Ki (SNAP-CB1R) [nM] | pKi CB2 Radioligand Binding (hCB2R) | pKi CB2 Tag-Lite Binding (CELT-335) (SNAP-CB2R) | pKi CB1 Radioligand Binding (CB1 receptor) | Ki (human CB2R; displacement of specific [3H]-CP55940 binding, mean ± SEM, read-out: pKi CB2 Radioligand Binding (converted)) [nM] | Ki (human CB1R; displacement of specific [3H]-CP55940 binding, mean ± SEM, read-out: pKi CB1 Radioligand Binding (converted)) [nM] |
| --- | --- | --- | --- | --- | --- | --- | --- | --- | --- | --- |
| CC(C)C(NC(=O)c1cn(Cc2ccc(F)cc2)c2ccccc12)C(N)=O (stereo not drawn) [AB-FUBICA] | 28.8 | 3.6 | 36.3 |  |  |  |  |  |  |  |
| COC(=O)[C@@H](NC(=O)c1cn(Cc2ccc(F)cc2)c2ccccc12)C(C)C [AMB-FUBICA] | 20 | 47.9 | 21.9 | 117 |  |  |  |  |  |  |
| CCCCCn1cc(C(=O)NC23CC4CC(CC(C4)C2)C3)c(=O)c2ccccc21 [Adamantyl-quinolone] |  | 49 |  |  | 79.4 | 7.78 [32] | 8.29 ± 0.11 |  |  |  |
| COC(=O)C(NC(=O)c1cn(CC2CCCCC2)c2ccccc12)C(C)(C)C (stereo not drawn) [MDMB-CHMICA] |  |  | 2.34 | 8.13 |  |  |  | 9.38 [31] |  |  |
| Cc1c(C(=O)NCc2cccnc2)nn(-c2ccc(Cl)cc2Cl)c1-c1ccc(Cl)cc1 [MJ15] |  |  | 324 | 36.3 |  |  |  |  | 692 | 63.1 |

From publication PMC10745346, “A Robust and Efficient FRET-Based Assay for Cannabinoid Receptor Ligands Discovery” (Molecules, 2023)
